Experimental data: EPA's ToxValDB 9.5 (doi:10.2903/j.efsa.2005.43r)
≈ marks a conversion by molar mass, not a printed value.

How the values were obtained:
Tagia sp. = conditions: acute; duration: 14 days; mortality
Canidae = conditions: chronic; duration: 1 years; oral; Dog Other; hematological
Apis mellifera = conditions: acute, duration: 24 hours, mortality
Pimephales promelas = conditions: chronic/long-term; duration: 36 days
Oncorhynchus mykiss = conditions: acute; duration: 96 hours; mortality
Daphnia magna = conditions: chronic/long-term; duration: 21 days; reproduction
Colinus virginianus = conditions: acute, oral, mortality
Anas platyrhynchos = conditions: reproductive
Mesograpta sp. = assay: LR50; higher = less toxic; conditions: chronic/long-term, mortality

Cc1nc(N(C)C)nc(OC(=O)N(C)C)c1C [Pirimicarb]
LC50 (Tagia sp.): > 60 mg/kg | NOAEL (Canidae): 3.5 mg/kg-day | LD50 (Apis mellifera; dermal): 53.1 µg/piece | LD50 (Apis mellifera; oral, unspecified): 4 µg/piece | NOEC (Pimephales promelas): 10 mg/L | LC50 (Oncorhynchus mykiss): 79 µg/mL (≈ 332 µM) | NOEC (Daphnia magna): 0.0009 mg/L | LC50 (Colinus virginianus; duration: 5 days, diet): 394 mg/kg-day | LD50 (Colinus virginianus; gavage): 20.9 mg/kg | LD50 (Rattus norvegicus; acute, oral, F, mortality): 142 mg/kg | NOAEL (Rattus norvegicus; acute, oral, gavage, clinical signs): 10 mg/kg-day | NOEC (Rattus norvegicus; reproduction developmental): 81.8 mg/kg-day | NOEC (Anas platyrhynchos): 12.1 mg/kg-day | LR50 (Mesograpta sp.; duration: 16 days): 14.6 g/ha | LR50 (Mesograpta sp.; duration: 28 days): 14.6 g/ha
